According to patent publication US20230123589A1, “MOLECULAR MOBILITY ENHANCER OR MOLECULAR DRYING ENHANCER” (TEKDRY INTERNATIONAL, INC., priority 2020, published 2023):

Test: Evaluation of vapor diffusion (chemical indicators in 2-meter long 4-mm inner diameter polytetrafluoroethylene tube)
Assay type: physicochemical
Conditions: 50° C., less than 10 torr, 15-minute time period
[1] = introduced into chamber extension
[2] = introduced into process chamber

Excerpt: A typical diffusion apparatus for conducting these evaluations includes a stainless-steel pressure chamber which is connected to a smaller stainless-steel extension chamber. Connection is made by means of a stainless-steel tube that contains a valve for isolating vapor flow between the vacuum chamber and the chamber extension. The chamber extension contains isolated compartments that admitted molecular mobility enhancer (MME) and/or liquid or solid agent components. The vacuum chamber and the chamber extension are independently heated. […] The isolated compartments within the chamber extension were independently heated. […] The chamber extension as a whole as well as the isolated compartments within the chamber extension are connected to MME and transport moiety sources via a valve and a conduit connected to a flow controller. The chamber extension is also outfitted with a door that can be used for placing solid agent sources within the extension. The entire system (vacuum chamber and chamber extension) is connected to a vacuum system e.g., (comprising a vacuum pump) capable of reducing the pressure and vaporizing the molecular mobility enhancer and liquid or solid transport moieties.
The tube and its contents were placed in the process chamber of the diffusion system. In this test the process chamber was heated to 50° C. […] The door to the diffusion system was closed and sealed. The diffusion system was evacuated to a pressure less than 10 torr. Multiple vaporization/diffusion cycles were performed over the course of a 15-minute time period. At the end of the process the diffusion system was brought to atmosphere and the tube and its contents were removed from the process chamber.
The tube and its contents were placed in the process chamber of the diffusion system. In this test the diffusion system was heated to 50° C. […] The door to the diffusion system was closed and sealed. The diffusion system including the chamber extension was evacuated to a pressure less than 10 torr. Multiple vaporization/diffusion cycles were performed over the course of a 15-minute time period.

Row | SMILES | color change on chemical indicators: exposure of entire inner length of the tube to transport moiety vapor [1] | color change on chemical indicators: exposure of entire inner length of the tube to transport moiety vapor [2]
1 | OO [aqueous hydrogen peroxide (30 wt %), hydrogen peroxide] | entire inner length of the tube had not been exposed | entire inner length of the tube had not been exposed
2 | CC(C)O [isopropanol] | entire inner length of the tube had not been exposed | entire inner length of the tube had not been exposed
